This is an account of results in patent publication US8642609B2, “Modulators of ATP-binding cassette transporters” (Vertex Pharmaceuticals Incorporated, priority 2003, dated 2014).

SMILES strings stand for the structures. pEC50: −log10 of the molar value.

This assay has as its target T1, ΔF508-CFTR (Homo sapiens, UniProt P13569, DEL508-508).
T1 construct: expressed in transfected cells
The assay can be described thus: Membrane potential optical assay (FRET/VIPR), identification of correction compounds. Type of assay: cell-based. The note with it: for Emax: relative efficacy. In short, it runs like this:
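NIH3T3 cells stably expressing ΔF508-CFTR incubated 16 hrs at 37° C in serum-free medium with test compound; 27° C incubation as positive control. CFTR then activated with 10 μM forskolin plus 20 μM genistein in Cl^−-free medium; depolarization read by DiSBAC2(3)/CC2-DMPE FRET on VIPR.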

As usually defined, the pEC50 is the EC50 on a negative log10 scale, so that one unit is a factor of ten. For orientation: Emax means the size of the effect at its maximum, as opposed to the concentration needed.

T1 sequence (P13569 with tags, fused parts or gaps DEL508-508): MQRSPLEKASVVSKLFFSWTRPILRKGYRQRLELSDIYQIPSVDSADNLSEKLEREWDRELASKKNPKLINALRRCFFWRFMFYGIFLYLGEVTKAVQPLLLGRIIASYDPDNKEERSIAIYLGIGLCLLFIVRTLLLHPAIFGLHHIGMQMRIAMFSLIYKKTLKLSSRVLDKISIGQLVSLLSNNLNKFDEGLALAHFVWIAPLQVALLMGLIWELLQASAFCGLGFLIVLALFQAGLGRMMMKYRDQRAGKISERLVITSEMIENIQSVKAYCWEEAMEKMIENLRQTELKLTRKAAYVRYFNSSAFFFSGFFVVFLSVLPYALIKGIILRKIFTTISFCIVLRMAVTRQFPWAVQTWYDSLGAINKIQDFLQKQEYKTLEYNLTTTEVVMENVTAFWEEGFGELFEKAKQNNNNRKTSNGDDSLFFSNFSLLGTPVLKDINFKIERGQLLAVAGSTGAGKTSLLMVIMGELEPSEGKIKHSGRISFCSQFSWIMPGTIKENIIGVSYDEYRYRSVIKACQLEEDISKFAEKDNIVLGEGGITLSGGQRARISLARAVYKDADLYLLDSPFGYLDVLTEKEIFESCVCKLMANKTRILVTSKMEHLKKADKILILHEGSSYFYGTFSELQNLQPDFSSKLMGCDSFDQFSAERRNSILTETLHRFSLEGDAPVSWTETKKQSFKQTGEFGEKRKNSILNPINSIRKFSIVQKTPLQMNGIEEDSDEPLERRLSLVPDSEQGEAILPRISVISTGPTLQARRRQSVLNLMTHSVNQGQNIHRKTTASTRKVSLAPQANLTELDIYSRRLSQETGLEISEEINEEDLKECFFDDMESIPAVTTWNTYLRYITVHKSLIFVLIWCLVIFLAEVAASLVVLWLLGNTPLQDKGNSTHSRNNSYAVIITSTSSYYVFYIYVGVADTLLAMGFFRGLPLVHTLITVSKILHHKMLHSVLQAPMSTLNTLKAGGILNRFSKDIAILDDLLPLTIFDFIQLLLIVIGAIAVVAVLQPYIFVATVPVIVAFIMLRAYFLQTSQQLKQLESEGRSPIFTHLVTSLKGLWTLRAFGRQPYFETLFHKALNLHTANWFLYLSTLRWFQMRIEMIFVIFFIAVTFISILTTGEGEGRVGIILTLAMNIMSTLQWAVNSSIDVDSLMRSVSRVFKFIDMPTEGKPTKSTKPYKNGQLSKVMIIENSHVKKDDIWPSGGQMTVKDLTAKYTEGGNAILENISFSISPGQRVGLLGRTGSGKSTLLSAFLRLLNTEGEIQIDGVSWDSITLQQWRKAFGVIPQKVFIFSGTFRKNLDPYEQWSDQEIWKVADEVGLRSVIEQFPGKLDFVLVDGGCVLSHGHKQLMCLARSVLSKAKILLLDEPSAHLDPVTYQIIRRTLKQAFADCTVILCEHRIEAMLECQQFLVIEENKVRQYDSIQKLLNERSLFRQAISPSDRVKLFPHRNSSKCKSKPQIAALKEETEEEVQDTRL

Consider `CC(c1nc2ccc(-c3nnn[nH]3)cc2c(=O)n1C)N1CCN(S(=O)(=O)c2ccc(Cl)cc2)CC1` (stereo not drawn) [compound 154], for which the pEC50 was 4.22 to 4.60 and the maximum response (Emax) is greater than 100%.
Consider `CC(c1nc2ccc(S(C)(=O)=O)cc2c(=O)n1C)N1CCN(S(=O)(=O)c2ccccc2)CC1` (stereo not drawn) [compound 138], for which the negative-log EC50 (pEC50) is 4.60 to 5.00 and the Emax was less than 25%.
Regarding `CC(C)Oc1nc(C(C)N2CCN(S(=O)(=O)c3ccc(Br)cc3)CC2)nc2ccccc12` (stereo not drawn) [compound 217], the pEC50 is greater than 5.00 and the Emax is greater than 100%.
As for `CCCn1c(CN2CCN(S(=O)(=O)c3ccc(Cl)cc3)CC2)nc2ccccc2c1=O` [compound 151], the negative-log EC50 (pEC50) was 4.60 to 5.00 and the maximal effect (Emax) was greater than 100%.
Taken in the same sequence, the figures for `CCCn1c(CN2CCN(S(=O)(=O)c3ccc(OC)cc3)CC2)nc2ccccc2c1=O` [compound 150] were 4.60 to 5.00 and 25 to 100%.
As to `CC(c1nc2ccccc2c(=O)n1C)N1CCC(NS(=O)(=O)c2ccc(Cl)cc2)CC1` (stereo not drawn) [compound 165], the negative-log EC50 (pEC50) is greater than 5.00 and the Emax fell in the range of 25 to 100%.
With `COc1ccc2nc(C(C)N3CCN(S(=O)(=O)c4ccccc4)CC3)n(C)c(=O)c2c1` (stereo not drawn) [compound 133], the negative logarithm of the EC50 (pEC50) is 4.60 to 5.00 and the Emax was 25 to 100%.
For `CC(c1nc2ccccc2c(=O)n1C)N1CC2CC1CN2` (stereo not drawn) [compound 186], the pEC50 was 4.22 to 4.60 and the maximal response (Emax) is less than 25%.
In the case of `CC(c1nc2ccc(Br)cc2c(=O)n1C)N1CCN(S(=O)(=O)c2ccccc2)CC1` (stereo not drawn) [compound 114], the pEC50 is 4.60 to 5.00 and the Emax fell in the range of 25 to 100%.
On to `CCOC(=O)c1cnc(C(C)N2CCN(S(=O)(=O)c3ccc(OC)cc3)CC2)nc1N1CCCCC1` (stereo not drawn) [compound 353], for which the pEC50 was greater than 5.00 and the maximal effect (Emax) fell in the range of 25 to 100%.
As to `COc1ccc(C(=O)N2CCN(C(C)c3nc4ccccc4c(=O)n3C)CC2)cc1` (stereo not drawn) [compound 81], the negative logarithm of the EC50 (pEC50) is 4.22 to 4.60 and the maximum response (Emax) is less than 25%.
As to `CSc1ccc(S(=O)(=O)N2CCN(C(C)c3nc4ccccc4c(=O)n3C)CC2)cc1` (stereo not drawn) [compound 350], the pEC50 was 4.22 to 4.60 and the Emax was less than 25%.
On to `COc1ccc(S(=O)(=O)N2CCN(C(C)c3nc(OCC4(C)COCOC4)c4ccccc4n3)CC2)cc1` (stereo not drawn) [compound 296], for which the pEC50 was 4.60 to 5.00 and the Emax is greater than 100%.
The like results for `Cc1nn(C)c(Cl)c1S(=O)(=O)N1CCN(C(C)c2nc3ccccc3c(=O)n2C)CC1` (stereo not drawn) [compound 257] were, in that order, 4.22 to 4.60 and less than 25%.
For `Cc1ccc(S(=O)(=O)N2CCN(C(C)c3nc4ccc(Cl)cc4c(=O)n3C)CC2)cc1` (stereo not drawn) [compound 41], the negative-log EC50 (pEC50) was 4.22 to 4.60 and the Emax was less than 25%.
In the case of `CC(c1nc2ccccc2c(=O)n1C)N1CCN(S(=O)(=O)c2ccc(-c3ccccn3)s2)CC1` (stereo not drawn) [compound 281], the pEC50 is 4.22 to 4.60 and the Emax was less than 25%.
In the case of `CC(c1nc2ccccc2c(=O)n1C)N1CCN(C(=O)Nc2ccccc2)CC1` (stereo not drawn) [compound 31], the negative logarithm of the EC50 (pEC50) is 4.60 to 5.00 and the maximal response (Emax) is less than 25%.
In the case of `CC(c1nc2ccc(N)cc2c(=O)n1C)N1CCN(S(=O)(=O)c2ccc(Br)cc2)CC1` (stereo not drawn) [compound 146], the pEC50 is greater than 5.00 and the maximal effect (Emax) was greater than 100%.
As for `CC(c1nc2ccccc2c(=O)n1C)N(CCNS(=O)(=O)c1ccc(Cl)cc1)S(=O)(=O)c1ccc(Cl)cc1` (stereo not drawn) [compound 198], the pEC50 was 4.22 to 4.60 and the maximal effect (Emax) was less than 25%.
With `CCCn1c(C(C)N2CCN(C(=O)c3ccc4ccccc4c3)CC2)nc2ccccc2c1=O` (stereo not drawn) [compound 30], the pEC50 is 4.22 to 4.60 and the maximal response (Emax) lay within 25 to 100%.
With `COc1ccc(S(=O)(=O)N2CCC(C(C)c3nc(OC4CCCC4)c4ccccc4n3)CC2)cc1` (stereo not drawn) [compound 403], the pEC50 was greater than 5.00 and the Emax was greater than 100%.
Turning to `Cc1ccc(S(=O)(=O)N2CCN(C(C)c3nc4cc(Cl)ccc4c(=O)n3C)CC2)cc1` (stereo not drawn) [compound 92], the pEC50 is greater than 5.00 and the maximal effect (Emax) was greater than 100%.
As to `CNc1nc(C(C)N2CCN(S(=O)(=O)c3ccc(Cl)cc3)CC2)nc2ccccc12` (stereo not drawn) [compound 232], the negative-log EC50 (pEC50) was 4.22 to 4.60 and the Emax fell in the range of 25 to 100%.
On to `CC(c1nc2ccc(C(N)=O)cc2c(=O)n1C)N1CCN(S(=O)(=O)c2ccc(Br)cc2)CC1` (stereo not drawn) [compound 156], for which the pEC50 was 4.60 to 5.00 and the Emax fell in the range of 25 to 100%.
The like results for `COc1ccc(S(=O)(=O)N2CCN(C(C)c3nc4ccc(Cl)cc4c(=O)n3C)CC2)cc1` (stereo not drawn) [compound 62] were, in that order, greater than 5.00 and 25 to 100%.
In the case of `CC(c1nc2ccccc2c(=O)n1C)N(CCN(C)S(=O)(=O)c1ccc(Br)cc1)S(=O)(=O)c1ccc(Br)cc1` (stereo not drawn) [compound 202], the pEC50 was 4.22 to 4.60 and the Emax was less than 25%.
For the compound `COc1ccc(S(=O)(=O)N2CCN(C(C)c3nc(N4CCC(CCO)CC4)c4ccccc4n3)CC2)cc1` (stereo not drawn) [compound 363], the negative-log EC50 (pEC50) is 4.60 to 5.00 and the Emax was greater than 100%.
On to `CC(Nc1ccc(NS(=O)(=O)c2ccc(Br)cc2)cc1)c1nc2ccccc2c(=O)n1C` (stereo not drawn) [compound 309], for which the negative logarithm of the EC50 (pEC50) was greater than 5.00 and the Emax lay in the range of 25 to 100%.
On to `C=Cc1ccc(S(=O)(=O)N2CCN(C(C)c3nc4ccccc4c(=O)n3C)CC2)cc1` (stereo not drawn) [compound 244], for which the pEC50 is 4.22 to 4.60 and the Emax lay within 25 to 100%.
As for `COc1ccc(S(=O)(=O)N2CCN(C(C)c3ncc(C(=O)N(C)C)c(N4CCCCC4)n3)CC2)cc1` (stereo not drawn) [compound 358], the pEC50 is 4.22 to 4.60 and the Emax was 25 to 100%.
As to `COc1ccc(S(=O)(=O)N2CCN(C(C)c3nc(OC(C)C)c4ccccc4n3)CC2)cc1` (stereo not drawn) [compound 190], the pEC50 is greater than 5.00 and the maximal effect (Emax) is greater than 100%.
For `CCN(CC)c1nc(C(C)N2CCN(S(=O)(=O)c3ccc(OC)cc3)CC2)nc2ccccc12` (stereo not drawn) [compound 195], the pEC50 is 4.60 to 5.00 and the maximum response (Emax) is 25 to 100%.
In the case of `Cc1cccc(S(=O)(=O)N2CCN(C(C)c3nc4ccccc4c(=O)n3C)CC2)c1` (stereo not drawn) [compound 48], the negative logarithm of the EC50 (pEC50) is 4.22 to 4.60 and the Emax lay within 25 to 100%.
As for `CC(c1nc2ccc(S(C)(=O)=O)cc2c(=O)n1C)N1CCN(S(=O)(=O)c2ccc(Br)cc2)CC1` (stereo not drawn) [compound 142], the pEC50 was 4.60 to 5.00 and the maximal response (Emax) is 25 to 100%.
Take `Cc1cccc(C(=O)N2CCN(C(C)c3nc4ccccc4c(=O)n3C)CC2)c1` (stereo not drawn) [compound 57]: the negative-log EC50 (pEC50) is 4.22 to 4.60 and the maximum response (Emax) was less than 25%.
Consider `CC(c1nc2ccccc2c(=O)n1C)N1CCN(S(=O)(=O)c2ccccc2F)CC1` (stereo not drawn) [compound 253], for which the pEC50 is 4.22 to 4.60 and the Emax was in the range of 25 to 100%.
Regarding `C[C@@H](c1nc(N2CCCCC2)c2ccccc2n1)N1CCN(S(=O)(=O)c2ccc(Cl)cc2)CC1` [compound 380], the pEC50 was greater than 5.00 and the Emax is greater than 100%.
Taken in the same sequence, the figures for `Cc1ccc(S(=O)(=O)N2CCN(C(C)c3nc4ccc(C#N)cc4c(=O)n3C)CC2)cc1` (stereo not drawn) [compound 125] were 4.60 to 5.00 and 25 to 100%.
Consider `COc1ccc(S(=O)(=O)N2CCN(C(C)c3nc(OC4CCCCC4)c4nccnc4n3)CC2)cc1` (stereo not drawn) [compound 396], for which the pEC50 was 4.60 to 5.00 and the Emax is greater than 100%.
Turning to `COc1ccc(S(=O)(=O)N2CCN(C(C)c3nc4ccc(F)cc4c(=O)[nH]3)CC2)cc1` (stereo not drawn) [compound 377], the negative-log EC50 (pEC50) is 4.22 to 4.60 and the maximal response (Emax) is 25 to 100%.
Turning to `CC(c1nc2ccccc2c(=O)n1C)N(C)C1CCN(S(=O)(=O)c2ccc(Cl)cc2)CC1` (stereo not drawn) [compound 315], the pEC50 is 4.22 to 4.60 and the maximum response (Emax) lay in the range of 25 to 100%.
`CC(c1nc2ccccc2c(=O)n1C)N1CCN(S(=O)(=O)c2ccc(CC#N)cc2)CC1` (stereo not drawn) [compound 330]: the negative-log EC50 (pEC50) is 4.22 to 4.60 and the maximum response (Emax) fell in the range of 25 to 100%.
The like results for `CC(c1nc2ccccc2c(=O)n1C)N1CC2CC1CN2S(=O)(=O)c1ccc(Cl)cc1` (stereo not drawn) [compound 176] were, in that order, 4.22 to 4.60 and 25 to 100%.
For the compound `COc1ccc(S(=O)(=O)N2CCN(C(C)c3nc(N4CCCC(C)C4)c4ccccc4n3)CC2)cc1` (stereo not drawn) [compound 305], the negative-log EC50 (pEC50) is greater than 5.00 and the maximum response (Emax) was in the range of 25 to 100%.
For `COc1ccc(S(=O)(=O)N2CCN(C(C)c3nc(N(C)CC4OCCO4)c4ccccc4n3)CC2)cc1` (stereo not drawn) [compound 395], the negative-log EC50 (pEC50) is 4.60 to 5.00 and the Emax fell in the range of 25 to 100%.
`CCOc1nc(C(C)N2CCN(S(=O)(=O)c3ccc(Br)cc3)CC2)nc2ccccc12` (stereo not drawn) [compound 228]: the pEC50 was greater than 5.00 and the Emax was greater than 100%.
On to `COc1ccc(S(=O)(=O)N2CCN(Cc3nc(OC4CCCCC4)c4ccccc4n3)CC2)cc1` [compound 385], for which the pEC50 was greater than 5.00 and the Emax is greater than 100%.
Regarding `CCCn1c(C(C)N2CCN(S(=O)(=O)c3c(C)cc(C)cc3C)CC2)nc2ccccc2c1=O` (stereo not drawn) [compound 21], the negative logarithm of the EC50 (pEC50) was 4.22 to 4.60 and the Emax fell in the range of 25 to 100%.
Consider `CC(c1nc2ccccc2c(=O)n1C)N1CCC(NS(=O)(=O)c2ccc(Br)cc2)CC1` (stereo not drawn) [compound 166], for which the negative-log EC50 (pEC50) was greater than 5.00 and the Emax was 25 to 100%.
The like results for `CC(NCCNS(=O)(=O)c1ccc(Br)cc1)c1nc2ccccc2c(=O)n1C` (stereo not drawn) [compound 169] were, in that order, 4.22 to 4.60 and 25 to 100%.
Turning to `CC(c1nc2ccccc2c(=O)n1C)N1CCCN(S(=O)(=O)c2ccc(Br)cc2)CC1` (stereo not drawn) [compound 172], the pEC50 was greater than 5.00 and the Emax is 25 to 100%.
As for `CC(c1nc(OC2CCCC2)c2ccccc2n1)N1CCN(S(=O)(=O)c2ccc(Br)cc2)CC1` (stereo not drawn) [compound 218], the negative logarithm of the EC50 (pEC50) was greater than 5.00 and the maximum response (Emax) is greater than 100%.
In the case of `CC(NCCNS(=O)(=O)c1ccc(Cl)cc1)c1nc2ccccc2c(=O)n1C` (stereo not drawn) [compound 168], the negative-log EC50 (pEC50) is 4.22 to 4.60 and the maximal response (Emax) is less than 25%.
Taken in the same sequence, the figures for `COc1ccc(S(=O)(=O)N2CCN(C(C)c3nc(N4CCC(C(=O)O)CC4)c4ccccc4n3)CC2)cc1` (stereo not drawn) [compound 370] were 4.22 to 4.60 and less than 25%.
